Laboratory results published in patent publication US10780092B2, “Fused pyrazine derivatives useful as soluble guanylate cyclase stimulators” (Merck Sharp & Dohme Corp., priority 2016, dated 2020).

How the values were obtained:
[1] = target: human recombinant sGC enzyme (Homo sapiens (Human), UniProt Q02108+Q02153); assay: SEC competition binding assay with [3H] Compound B radioligand; conditions: displacement of 1.6 nM [3H] Compound B, 24 h at 37° C.
In short: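 Recombinant human sGC incubated with 1.6 nM [3H] Compound B and test compounds for 24 h at 37° C. Buffer: 50 mM triethanolamine pH 7.4, 3 mM MgCl2, 0.025% BSA, 2 mM DTT, 300 μM DETA/NO, 400 μM GTP, 1% DMSO. Bound ligand separated by gel filtration and counted by scintillation; non-specific binding with 1 μM Compound B; Ki from one-site fit.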

sGC α1/β1 heterodimer = sGC α1/β1 heterodimer (Homo sapiens (Human), UniProt Q02108+Q02153); assay: Cell-based sGC functional assay (CASA assay), cGMP by HTRF; conditions: CHO-K1/sGC cells; for EC50: inflection point of cGMP production, 4P fit, read-out: IP; for Emax: CHO-K1, cGMP production as percentage of maximum of compound A (set to 100%), read-out: % Activation
In short: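 CHO-K1 cells stably expressing human sGC α1/β1, with 0.5 mM IBMX, pre-incubated ±1 μM DETA-NO 30 min at 25° C, then compound 1 hr at 37° C (2.5% DMSO). cGMP by HTRF; activation as % of reference activator maximum, 4P fit giving inflection point and maximum […].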

Row | SMILES | Ki [1] | % Activation (sGC α1/β1 heterodimer; cGMP production as percentage of maximum of compound A (set to 100%)) | EC50 (sGC α1/β1 heterodimer) | Emax (sGC α1/β1 heterodimer)
1 | CC1(c2ccc(Cl)c(O)c2)C(=O)Nc2nc(-c3cn4ccnc4c(Cc4ccc(F)cc4)n3)nc(NCC(O)C(F)(F)F)c21 (single isomer, unassigned) [Example 132-AB, 5-(4-Chloro-3-hydroxy-phenyl)-2-{8-[(4-fluoro-phenyl)methyl]imidazo-[1,2-a]pyrazin-6-yl}-5-methyl-4-[(3,3,3-trifluoro-2-hydroxypropyl)amino]-5,7-dihydro-6H-pyrrolo-[2,3-d]pyrimidin-6-one] | 0.00146 µM | 95% | 0.736 µM | 
2 | CC1(c2cc(O)c(Cl)c(F)c2)C(=O)Nc2nc(-c3cn4ccnc4c(CC4CCCCC4)n3)nc(N)c21 (stereo not drawn) [Example 12-B, 4-Amino-5-(4-chloro-3-fluoro-5-hydroxyphenyl)-2-(8-(cyclohexylmethyl)imidazo[1,2-a]pyrazin-6-yl)-5-methyl-5,7-dihydro-6H-pyrrolo[2,3-d]pyrimidin-6-one] | 0.000153 µM |  | 0.098 µM | 116%
3 | CCCCc1nc(-c2nc(N)c3c(n2)NC(=O)C3(C)c2ccc(Cl)c(O)c2)cn2ncnc12 (stereo not drawn) [Example 50-A, 4-Amino-2-(8-butyl-[1,2,4]triazolo[1,5-a]pyrazin-6-yl)-5-(4-chloro-3-hydroxyphenyl)-5-methyl-5,7-dihydro-6H-pyrrolo[2,3-d]pyrimidin-6-one] | 0.000775 µM |  | 0.07 µM | 175%
4 | CCCCc1nc(-c2nc(N)c3c(n2)NC(=O)C3(C)c2ccc(Cl)c(O)c2)cn2ccnc12 (stereo not drawn) [Example 52-A, 4-Amino-2-(8-butylimidazo[1,2-a]pyrazin-6-yl)-5-(4-chloro-3-hydroxyphenyl)-5-methyl-5,7-dihydro-6H-pyrrolo[2,3-d]pyrimidin-6-one] | 0.000864 µM |  | 0.144 µM | 85%
5 | CC1(c2cccc(O)c2)C(=O)Nc2nc(-c3cn4ccnc4c(CC4CCCCC4)n3)nc(N)c21 (stereo not drawn) [Example 82-B, 4-Amino-2-(8-(cyclohexylmethyl)imidazo[1,2-a]pyrazin-6-yl)-5-(3-hydroxyphenyl)-5-methyl-5,7-dihydro-6H-pyrrolo[2,3-d]pyrimidin-6-one] | 0.000402 µM |  | 0.207 µM | 111%
6 | CC1(c2ccc(O)c(Cl)c2)C(=O)Nc2nc(-c3cn4ccnc4c(Cc4cccc(F)c4)n3)nc(N)c21 (stereo not drawn) [Example 35-B, 4-Amino-5-(3-chloro-4-hydroxyphenyl)-2-{8-[(3-fluorophenyl)methyl]imidazo[1,2-a]pyrazin-6-yl}-5-methyl-5,7-dihydro-6H-pyrrolo[2,3-d]pyrimidin-6-one] | 0.000333 µM |  | 0.402 µM | 147%
7 | CC1(c2cc(O)c(C#N)c(F)c2)C(=O)Nc2nc(-c3cn4ncnc4c(Cc4cc(F)cc(F)c4)n3)nc(N)c21 (stereo not drawn) [Example 27-B, 4-(4-Amino-2-{8-[(3,5-difluorophenyl)methyl]-[1,2,4]triazolo[1,5-a]pyrazin-6-yl}-5-methyl-6-oxo-6,7-dihydro-5H-pyrrolo[2,3-d]pyrimidin-5-yl)-2-fluoro-6-hydroxybenzonitrile] | 0.00028 µM |  | 0.489 µM | 94%
8 | Cc1cccc(Cc2nc(-c3nc(N)c4c(n3)NC(=O)C4(C)c3cccc(O)c3)cn3ccnc23)c1 (stereo not drawn) [Example 122-B, 4-Amino-5-(3-hydroxy-phenyl)-5-methyl-2-{8-[(3-methylphenyl)methyl]-imidazo[1,2-a]pyrazin-6-yl}-5,7-dihydro-6H-pyrrolo-[2,3-d]pyrimidin-6-one] | 0.0156 µM |  | 1.82 µM | 106%
9 | CC1(c2cc(O)c(Cl)c(F)c2)C(=O)Nc2nc(-c3cn4ncnc4c(CC4CCCCC4)n3)nc(N)c21 (stereo not drawn) [Example 21-B, 4-Amino-5-(4-chloro-3-fluoro-5-hydroxyphenyl)-2-(8-(cyclohexylmethyl)-[1,2,4]triazolo[1,5-a]pyrazin-6-yl)-5-methyl-5,7-dihydro-6H-pyrrolo[2,3-d]pyrimidin-6-one] | 0.000206 µM |  | 0.095 µM | 143%
